Measured values published in patent US20150231147A1, “METHODS FOR ACUTE AND LONG-TERM TREATMENT OF DRUG ADDICTION” (DemeRx, Inc., priority 2014, published 2015).
“Also recorded” adds a separate entry of the source. Read-outs that look alike come from different tables or passages of the source.

Experiments:
Assay type in all cases: in vivo, human
[1] = tested on: healthy, drug-free male volunteers; experiment: Safety and tolerability of noribogaine in healthy humans (adverse events, vital signs, ECG)
Description: (§1) Pulse oximetry and capnography data were collected continuously using a GE Carescape B650 monitoring system from 2 hours prior to dosing and until six hours after dosing, and thereafter at 12, 24, 48 and 72 hours post-dosing. […] Pupillary miosis was assessed by pupillometry.
(§2) Safety and tolerability of noribogaine were tested in the group of volunteers from Example 1. […] Safety evaluations included clinical monitoring, recording of adverse events (AEs), safety laboratory tests, vital signs, ECG telemetry from −2 h to 6 h after dosing, and 12-lead electrocardiograms (ECGs) up to 216 hours post-dosing.

[2] = tested on: opioid-dependent participants; experiment: Opiate withdrawal scales COWS, SOWS, OOWS
Description: Patients were evaluated based on the Clinical Opiate Withdrawal Scale (COWS), Subjective Opiate Withdrawal Scale (SOWS), and Objective Opiate Withdrawal Scale (OOWS) scoring systems over the period of time between administration of noribogaine (or placebo) until resumption of OST. These scales are outlined in Guidelines for the Psychosocially Assisted Pharmacological Treatment of Opioid Dependence, World Health Organization, Geneva (2009), Annex 10, which is incorporated herein by reference in its entirety. The scales measure the intensity of withdrawal symptoms, based on clinical, subjective, and objective indicia.

[3] = Serum noribogaine pharmacokinetics in patients, Phase IB study; details: for Vd/F / AUC(0-t) / Cmax / Tmax / AUC / half-life: human, serum, opioid-dependent patients, mean ± SD; for Vd/F: unit inferred; for AUC: read-out: AUC(0-¥)
Description: (§3) The efficacy of noribogaine in humans was evaluated in opioid-dependent participants in a randomized, placebo-controlled, double-blind trial. […] See U.S. application Ser. No. 14/214,157, filed Mar. 14, 2014 and Ser. No. 14/346,655, filed Mar. 21, 2014, which are incorporated herein by reference in their entireties.
(§4) Three cohorts of nine (9) subjects (6 administered noribogaine and 3 administered placebo in each cohort) were evaluated for tolerability, pharmacokinetics, and efficacy. Cohort 1 received a single dose of 60 mg noribogaine or placebo. Cohort 2 received a single dose of 120 mg noribogaine or placebo. Cohort 3 received a single dose of 180 mg noribogaine or placebo.

[4] = tested on: healthy, drug-free male volunteers; experiment: Cold pressor test (analgesic effect)
Description: Analgesic effect was assessed based on duration of hand immersion in ice water and on visual analog scale (VAS) pain scores upon hand removal from the water bath.
as §2

[5] = tested on: opioid-dependent participants; experiment: Time to resumption of morphine (opioid substitution treatment, OST)
Description: as §3, §4

[6] = tested on: opioid-dependent participants; experiment: QT interval prolongation in opioid-dependent patients; details: 60, 120, 180 mg, first 24 hours post administration; correlated with serum concentration
Description: Patients' QT intervals were evaluated at regular time points throughout the study.

[7] = tested on: healthy, drug-free male volunteers; experiment: Pupillary miosis assessed by pupillometry
Description: as §1

[8] = Plasma noribogaine pharmacokinetics, ascending single oral dose, healthy volunteers; details: for CL/F / AUC(0-inf) / Cmax / Tmax / Vd/F / AUC(0-t) / half-life: plasma; for AUC(0-inf) / Cmax / Tmax / Vd/F / AUC(0-t) / half-life: human; for AUC(0-t): read-out: AUC0-216
[9] = after adjusting for baseline differences, p>0.9
[10] = healthy volunteers, 3-60 mg single oral doses
[11] = healthy male volunteers, single oral 3 mg noribogaine, mean (n = 6)
[12] = healthy male volunteers, single oral 10 mg noribogaine, mean (n = 6)
[13] = healthy male volunteers, single oral 30 mg noribogaine, mean (n = 6)
[14] = healthy male volunteers, single oral 60 mg noribogaine, mean (n = 6)

CC[C@H]1CC2C[C@H]3c4[nH]c5ccc(O)cc5c4CCN(C2)C13 [Noribogaine]
Adverse events, Mild ([1]; healthy volunteers, 3 mg dose): Dizziness; also recorded: Epistaxis; also recorded: Headache; also recorded: Back pain | Adverse events, Moderate ([1]; healthy volunteers, 3 mg dose): Headache | number of adverse events reported ([1]; healthy volunteers, 3 mg dose group): five adverse events were reported by two subjects | Adverse events, Mild ([1]; healthy volunteers, 10 mg dose): Headache | number of adverse events reported ([1]; healthy volunteers, 10 mg dose group): one adverse event was reported by single subjects | Adverse events, Mild ([1]; healthy volunteers, 30 mg dose): Headache | number of adverse events reported ([1]; healthy volunteers, 30 mg dose group): one adverse event was reported by single subjects | changes in oximetry, capnography, respiratory rate ([1]; healthy volunteers, 3-60 mg): no changes in oximetry or capnography, or changes in respiratory rate | changes in vital signs or safety laboratory tests ([1]; healthy volunteers, 3-60 mg): no changes in vital signs or safety laboratory tests of note | QTcF values ([1]; healthy volunteers, 3-60 mg, at any time): ≤ 500 ms | intensity of adverse events ([1]; healthy volunteers, all groups, all resolved prior to study completion): mild-moderate intensity | single increase in QTcF ([1]; one subject dosed with 10 mg, 24 hours post-dosing): > 60 ms | withdrawal symptoms (COWS, OOWS, SOWS), first six hours following dosing ([2]; single 120 mg dose, compared with the other patients): generally experienced fewer withdrawal symptoms than the other patients | withdrawal symptoms (COWS, OOWS, SOWS), noribogaine compared with placebo ([2]; single 60, 120 or 180 mg dose, first six hours following dosing): Patients administered placebo generally experienced more withdrawal symptoms than patients who were administered noribogaine | dose dependence of maximum serum concentration (Cmax) ([3]; 60, 120, 180 mg cohorts): increased in a dose-dependent manner | Vd/F ([3]; Cohort 2 (120 mg)): 2110 ± 1640 L | Vd/F ([3]; Cohort 3 (180 mg)): 1030 ± 365 L | AUC(0-t) ([3]; Cohort 1 (60 mg)): 2020 ± 614 ng·h/mL | Cmax ([3]; Cohort 1 (60 mg)): 81.6 ± 23.8 ng/mL | Tmax ([3]; Cohort 1 (60 mg)): 3.59 ± 0.92 h | AUC ([3]; Cohort 1 (60 mg)): 2060 ± 609 ng·h/mL | AUC(0-t) ([3]; Cohort 2 (120 mg)): 3230 ± 1540 ng·h/mL | Cmax ([3]; Cohort 2 (120 mg)): 173 ± 30.7 ng/mL | Tmax ([3]; Cohort 2 (120 mg)): 2.99 ± 1.23 h | half-life ([3]; Cohort 2 (120 mg)): 30.4 ± 9.14 h | AUC ([3]; Cohort 2 (120 mg)): 3280 ± 1580 ng·h/mL | AUC(0-t) ([3]; Cohort 3 (180 mg)): 6520 ± 2910 ng·h/mL | Cmax ([3]; Cohort 3 (180 mg)): 268 ± 46.9 ng/mL | Tmax ([3]; Cohort 3 (180 mg)): 4.41 ± 1.8 h | half-life ([3]; Cohort 3 (180 mg)): 23.9 ± 5.54 h | AUC ([3]; Cohort 3 (180 mg)): 6890 ± 3490 ng·h/mL | VAS pain scores, each dose group compared with placebo by ANOVA ([4]; after adjusting for baseline differences, p=0.17): no statistically significant differences | duration of hand immersion, each dose group compared with placebo by ANOVA [4, 9]: no statistically significant differences | analgesic effect in the cold pressor test ([4]; healthy volunteers, 3-60 mg single oral doses, 1° C. water): no analgesic effect | average time to resumption of opioids ([5]; single 120 mg dose, given 2 hours after last morphine dose): greater than 20 hours | Time to resumption of OST compared with untreated patients and 60 mg group ([5]; single 180 mg dose): still longer than untreated patients (7 hours, not shown) or those administered 60 mg noribogaine | QT interval prolongation (ΔQTcl) [6]: dose-dependent increase in QT interval prolongation | pupil diameter, each dose group compared with placebo by ANOVA [7, 9]: no statistically significant differences | pupillary constriction [7, 10]: no evidence of pupillary constriction | CL/F [8, 11]: 41.4 L/h | CL/F [8, 12]: 42.3 L/h | CL/F [8, 13]: 46.9 L/h | CL/F [8, 14]: 34.0 L/h | Volume of distribution across dose groups [8, 10]: 1417 to 3086 L | dose dependence of Cmax and AUC [8, 10]: increased linearly with dose | time of peak concentrations after oral dosing [8, 10]: 2 to 3 h | AUC(0-inf) [8, 11]: 74.2 ng·h/mL | Cmax [8, 11]: 5.2 ng/mL | Tmax [8, 11]: 1.9 h | Vd/F [8, 11]: 2490 L | AUC(0-t) [8, 11]: 72.2 ng·h/mL | half-life ([8]; healthy male volunteers, single oral 3 mg noribogaine, mean (n = 6), read-out: t1/2 (converted)): 40.9 h | AUC(0-inf) [8, 12]: 254 ng·h/mL | Cmax [8, 12]: 14.5 ng/mL | Tmax [8, 12]: 2.9 h | Vd/F [8, 12]: 3090 L | AUC(0-t) [8, 12]: 251 ng·h/mL | half-life ([8]; healthy male volunteers, single oral 10 mg noribogaine, mean (n = 6), read-out: t1/2 (converted)): 49.2 h | AUC(0-inf) [8, 13]: 700 ng·h/mL | Cmax [8, 13]: 55.9 ng/mL | Tmax [8, 13]: 1.8 h | Vd/F [8, 13]: 1850 L | AUC(0-t) [8, 13]: 678 ng·h/mL | half-life ([8]; healthy male volunteers, single oral 30 mg noribogaine, mean (n = 6), read-out: t1/2 (converted)): 27.6 h | AUC(0-inf) [8, 14]: 1960 ng·h/mL | Cmax [8, 14]: 116 ng/mL | Tmax [8, 14]: 2.4 h | Vd/F [8, 14]: 1420 L | AUC(0-t) [8, 14]: 1940 ng·h/mL | half-life ([8]; healthy male volunteers, single oral 60 mg noribogaine, mean (n = 6), read-out: t1/2 (converted)): 29.1 h | half-life ([8]; male, healthy volunteers, 3-60 mg single oral doses, read-out: Mean half-life estimates across dose groups): 28 to 50 h
